Source: US10538498B2, “1,3,4-oxadiazole sulfonamide derivative compounds as histone deacetylase 6 inhibitor, and the pharmaceutical composition comprising the same” (Chong Kun Dang Pharmaceutical Corp., priority 2015, dated 2020)
pIC50: −log10 of the molar value.

Biological target: T1, human recombinant HDAC6 (Homo sapiens, UniProt Q9UBN7)
T1 construct: purchased Calbiochem 382180
T1 sequence (Q9UBN7 1-1215): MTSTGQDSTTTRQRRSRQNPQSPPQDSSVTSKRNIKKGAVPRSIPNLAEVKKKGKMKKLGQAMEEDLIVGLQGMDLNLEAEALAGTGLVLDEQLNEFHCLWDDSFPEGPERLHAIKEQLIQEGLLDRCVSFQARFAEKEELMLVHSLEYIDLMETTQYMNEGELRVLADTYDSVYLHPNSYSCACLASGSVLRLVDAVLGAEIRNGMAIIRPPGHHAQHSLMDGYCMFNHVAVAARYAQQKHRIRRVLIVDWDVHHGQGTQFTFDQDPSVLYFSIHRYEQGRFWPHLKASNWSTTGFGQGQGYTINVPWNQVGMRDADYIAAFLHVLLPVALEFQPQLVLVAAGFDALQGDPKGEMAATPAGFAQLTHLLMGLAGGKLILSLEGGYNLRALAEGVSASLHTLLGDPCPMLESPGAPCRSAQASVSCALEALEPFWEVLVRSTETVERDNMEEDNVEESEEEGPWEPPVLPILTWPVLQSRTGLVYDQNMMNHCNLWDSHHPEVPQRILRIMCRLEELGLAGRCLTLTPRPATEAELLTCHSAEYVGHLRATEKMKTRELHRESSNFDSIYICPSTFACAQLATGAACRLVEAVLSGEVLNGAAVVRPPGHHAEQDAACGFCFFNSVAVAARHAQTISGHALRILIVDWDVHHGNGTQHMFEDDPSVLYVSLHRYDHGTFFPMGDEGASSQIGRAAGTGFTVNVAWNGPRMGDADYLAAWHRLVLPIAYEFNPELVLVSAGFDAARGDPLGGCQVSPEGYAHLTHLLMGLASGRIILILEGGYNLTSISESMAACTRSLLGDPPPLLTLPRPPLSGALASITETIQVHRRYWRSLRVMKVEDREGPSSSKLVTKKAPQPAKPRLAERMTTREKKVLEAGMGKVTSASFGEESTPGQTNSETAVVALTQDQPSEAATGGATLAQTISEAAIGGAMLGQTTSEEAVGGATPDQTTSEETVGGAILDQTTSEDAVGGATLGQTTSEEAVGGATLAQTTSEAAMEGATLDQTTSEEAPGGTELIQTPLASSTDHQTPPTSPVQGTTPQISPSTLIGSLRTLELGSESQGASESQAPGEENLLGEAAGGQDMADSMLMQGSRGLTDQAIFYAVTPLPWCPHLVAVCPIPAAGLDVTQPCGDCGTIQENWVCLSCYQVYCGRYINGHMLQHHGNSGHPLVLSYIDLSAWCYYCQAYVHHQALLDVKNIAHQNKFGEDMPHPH
Assay: HDAC6 enzyme activity inhibition assay (HDAC Fluorimetric Drug Discovery Kit)
Type: biochemical
Settings: for HDAC6 selectivity (fold): HDAC1 vs HDAC6; for pIC50: same protocol as the HDAC1 enzyme activity test
Procedure, shortened: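 Fluorescence (Ex 360, Em 460) after 30 min developer step; IC50 from dose-response. Reaction: 0.3 μg recombinant enzyme, 10 μM Fluor de Lys-SIRT1 substrate, 5-fold compound dilutions, 60 min at 30° C. Same protocol for both isoforms.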

| Compound | HDAC6 selectivity (fold) | pIC50 |
| --- | --- | --- |
| O=S(=O)(CCCN1CCC(F)(F)C1)N(Cc1ccc(-c2nnc(C(F)F)o2)cc1)c1ccccc1 [Compound 11706, N-(4-(5-(difluoromethyl)-1,3,4-oxadiazol-2-yl)benzyl)-3-(3,3-difluoropyrrolidin-1-yl)-N-phenylpropane-1-sulfonamide] | 150 | 6.18 |
| CCS(=O)(=O)N(Cc1ccc(-c2nnc(C(F)F)o2)cn1)c1cccc2c1CN(C)C2 [Compound 11712, N-((5-(5-(difluoromethyl)-1,3,4-oxadiazol-2-yl)pyridin-2-yl)methyl)-N-(2-methylisoindolin-4-yl)ethanesulfonamide] | 264 | 6.42 |
| O=S(=O)(CCN1CCN(CCO)CC1)N(Cc1ccc(-c2nnc(C(F)F)o2)cc1)c1ccccc1 [Compound 11717, N-(4-(5-(difluoromethyl)-1,3,4-oxadiazol-2-yl)benzyl)-2-(4-(2-hydroxyethyl)piperazin-1-yl)-N-phenylethanesulfonamide] | 879 | 6.94 |
| O=S(=O)(CCCN1CCOCC1)N(Cc1ccc(-c2nnc(C(F)F)o2)cn1)c1ccccc1 [Compound 11718, N-((5-(5-(difluoromethyl)-1,3,4-oxadiazol-2-yl)pyridin-2-yl)methyl)-3-morpholino-N-phenylpropane-1-sulfonamide] | 1353 | 7.13 |
| O=S(=O)(CCCN1CCC(F)(F)C1)N(Cc1ccc(-c2nnc(C(F)F)o2)cn1)c1ccccc1 [Compound 11719, N-((5-(5-(difluoromethyl)-1,3,4-oxadiazol-2-yl)pyridin-2-yl)methyl)-3-(3,3-difluoropyrrolidin-1-yl)-N-phenylpropane-1-sulfonamide] | 1177 | 7.07 |
| O=S(=O)(CCCN1CCCC1)N(Cc1ccc(-c2nnc(C(F)F)o2)cn1)c1ccc(F)c(Cl)c1 [Compound 11721, N-(3-chloro-4-fluorophenyl)-N-((5-(5-(difluoromethyl)-1,3,4-oxadiazol-2-yl)pyridin-2-yl)methyl)-3-(pyrrolidin-1-yl)propane-1-sulfonamide] | 4739 | 7.68 |
| O=S(=O)(CCCN1CCOCC1)N(Cc1ccc(-c2nnc(C(F)F)o2)cc1)c1ccc(F)c(Cl)c1 [Compound 11723, N-(3-chloro-4-fluorophenyl)-N-(4-(5-(difluoromethyl)-1,3,4-oxadiazol-2-yl)benzyl)-3-morpholinopropane-1-sulfonamide] | 1272 | 7.10 |
| O=S(=O)(C1CCN([C@H]2CC[C@H](F)CC2)CC1)N(Cc1ccc(-c2nnc(C(F)F)o2)cc1)c1cccc(Cl)c1 [Compound 11725, N-(3-chlorophenyl)-N-(4-(5-(difluoromethyl)-1,3,4-oxadiazol-2-yl)benzyl)-1-((1r,4r)-4-fluorocyclohexyl)piperidine-4-sulfonamide] | 412 | 6.62 |
| O=S(=O)(C1CCN([C@H]2CC[C@@H](F)CC2)CC1)N(Cc1ccc(-c2nnc(C(F)F)o2)cc1)c1cccc(Cl)c1 [Compound 11726, N-(3-chlorophenyl)-N-(4-(5-(difluoromethyl)-1,3,4-oxadiazol-2-yl)benzyl)-1-((1s,4s)-4-fluorocyclohexyl)piperidine-4-sulfonamide] | 782 | 6.89 |
| CN1Cc2ccc(N(Cc3ccc(-c4nnc(C(F)F)o4)cc3)S(C)(=O)=O)cc2C1 [Compound 11729, N-(4-(5-(difluoromethyl)-1,3,4-oxadiazol-2-yl)benzyl)-N-(2-methylisoindolin-5-yl)methanesulfonamide] | 56 | 5.75 |
| CC(C)N1Cc2ccc(N(Cc3ccc(-c4nnc(C(F)F)o4)cc3)S(C)(=O)=O)cc2C1 [Compound 11730, N-(4-(5-(difluoromethyl)-1,3,4-oxadiazol-2-yl)benzyl)-N-(2-isopropylisoindolin-5-yl)methanesulfonamide] | 39 | 5.60 |
| CS(=O)(=O)N(Cc1ccc(-c2nnc(C(F)F)o2)cc1)c1ccc2c(c1)CN(C1COC1)C2 [Compound 11731, N-(4-(5-(difluoromethyl)-1,3,4-oxadiazol-2-yl)benzyl)-N-(2-(oxetan-3-yl)isoindolin-5-yl)methanesulfonamide] | 57 | 5.76 |
| CC(=O)N1Cc2ccc(N(Cc3ccc(-c4nnc(C(F)F)o4)cc3)S(C)(=O)=O)cc2C1 [Compound 11732, N-(2-acetylisoindolin-5-yl)-N-(4-(5-(difluoromethyl)-1,3,4-oxadiazol-2-yl)benzyl)methanesulfonamide] | 184 | 6.27 |
| CN1Cc2ccc(N(Cc3ccc(-c4nnc(C(F)F)o4)cn3)S(C)(=O)=O)cc2C1 [Compound 11733, N-((5-(5-(difluoromethyl)-1,3,4-oxadiazol-2-yl)pyridin-2-yl)methyl)-N-(2-methylisoindolin-5-yl)methanesulfonamide] | 203 | 6.31 |
| CC(C)N1Cc2ccc(N(Cc3ccc(-c4nnc(C(F)F)o4)cn3)S(C)(=O)=O)cc2C1 [Compound 11734, N-((5-(5-(difluoromethyl)-1,3,4-oxadiazol-2-yl)pyridin-2-yl)methyl)-N-(2-isopropylisoindolin-5-yl)methanesulfonamide] | 132 | 6.12 |
| CS(=O)(=O)N(Cc1ccc(-c2nnc(C(F)F)o2)cn1)c1ccc2c(c1)CN(C1COC1)C2 [Compound 11735, N-((5-(5-(difluoromethyl)-1,3,4-oxadiazol-2-yl)pyridin-2-yl)methyl)-N-(2-(oxetan-3-yl)isoindolin-5-yl)methanesulfonamide] | 123 | 6.09 |
| CC(=O)N1Cc2ccc(N(Cc3ccc(-c4nnc(C(F)F)o4)cn3)S(C)(=O)=O)cc2C1 [Compound 11736, N-(2-acetylisoindolin-5-yl)-N-((5-(5-(difluoromethyl)-1,3,4-oxadiazol-2-yl)pyridin-2-yl)methyl)methanesulfonamide] | 216 | 6.34 |
| CN1CCCN(CCS(=O)(=O)N(Cc2ccc(-c3nnc(C(F)F)o3)cc2)c2ccccc2)CC1 [Compound 11737, N-(4-(5-(difluoromethyl)-1,3,4-oxadiazol-2-yl)benzyl)-2-(4-methyl-1,4-diazepan-1-yl)-N-phenylethanesulfonamide] | 1440 | 7.16 |
| O=S(=O)(CCN1CCC1)N(Cc1ccc(-c2nnc(C(F)F)o2)cc1)c1ccccc1 [Compound 11738, 2-(azetidin-1-yl)-N-(4-(5-(difluoromethyl)-1,3,4-oxadiazol-2-yl)benzyl)-N-phenylethanesulfonamide] | 1466 | 7.17 |
| CS(=O)(=O)N(Cc1ccc(-c2nnc(C(F)F)o2)cc1)c1nccs1 [Compound 11739, N-(4-(5-(difluoromethyl)-1,3,4-oxadiazol-2-yl)benzyl)-N-(thiazol-2-yl)methanesulfonamide] | 148 | 6.17 |
| CS(=O)(=O)N(Cc1ccc(-c2nnc(C(F)F)o2)cc1)c1nc2ccccc2s1 [Compound 11740, N-(benzo[d]thiazol-2-yl)-N-(4-(5-(difluoromethyl)-1,3,4-oxadiazol-2-yl)benzyl)methanesulfonamide] | 188 | 6.27 |
| CS(=O)(=O)N(Cc1ccc(-c2nnc(C(F)F)o2)cc1)c1ncco1 [Compound 11741, N-(4-(5-(difluoromethyl)-1,3,4-oxadiazol-2-yl)benzyl)-N-(oxazol-2-yl)methanesulfonamide] | 57 | 5.76 |
| CC(C)n1ncc2ccc(N(Cc3ccc(-c4nnc(C(F)F)o4)cc3)S(C)(=O)=O)cc21 [Compound 11742, N-(4-(5-(difluoromethyl)-1,3,4-oxadiazol-2-yl)benzyl)-N-(1-isopropyl-1H-indazol-6-yl)methanesulfonamide] | 418 | 6.62 |
